Measurements from PubChem BioAssay AID248 (DTP/NCI, 2004).
Where “and” joins values, the source holds several entries; their conditions need not be identical. Identical values can stand only once. Inconclusive results and toxic doses are left out. No stated cut-off is given here; in the data, active means T/C of 150% or more; inactive means T/C below 125%.

System: L1210 leukemia ip in BDF1 mice, survival T/C
Assay: NCI In Vivo Anticancer Drug Screen. Data for tumor model L1210 Leukemia (intraperitoneal) in B6D2F1 (BDF1) mice
Conditions: endpoint: mean survival time, higher = longer survival
In short: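 In this screen, tumor-bearing mice given compound are compared to those given vehicle, and their survival values are reported as a treated-to-control quotient.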

[1] = dose: 100.0 mg/kg/injection, schedule: Q04DX003 (ip), vehicle: saline with Tween-80
[2] = dose: 200.0 mg/kg/injection, schedule: Q04DX003 (ip), vehicle: saline with Tween-80
[3] = dose: 400.0 mg/kg/injection, schedule: Q04DX003 (ip), vehicle: saline with Tween-80
[4] = dose: 100.0 mg/kg/injection, schedule: Q01DX001 (ip), vehicle: Klucel (hydroxypropylcellulose) (HPC)
[5] = dose: 200.0 mg/kg/injection, schedule: Q01DX001 (ip), vehicle: Klucel (hydroxypropylcellulose) (HPC)
[6] = dose: 400.0 mg/kg/injection, schedule: Q01DX001 (ip), vehicle: Klucel (hydroxypropylcellulose) (HPC)
[7] = dose: 50.0 mg/kg/injection, schedule: Q01DX009 (ip), vehicle: saline with Tween-80
[8] = dose: 75.0 mg/kg/injection, schedule: Q01DX001 (ip), vehicle: saline
[9] = dose: 150.0 mg/kg/injection, schedule: Q01DX001 (ip), vehicle: saline
[10] = dose: 100.0 mg/kg/injection, schedule: Q01DX001 (ip), vehicle: carboxymethylcellulose (CMC)
[11] = dose: 200.0 mg/kg/injection, schedule: Q01DX001 (ip), vehicle: carboxymethylcellulose (CMC)
[12] = dose: 400.0 mg/kg/injection, schedule: Q01DX001 (ip), vehicle: carboxymethylcellulose (CMC)
[13] = dose: 100.0 mg/kg/injection, schedule: Q01DX001 (ip), vehicle: saline
[14] = dose: 200.0 mg/kg/injection, schedule: Q01DX001 (ip), vehicle: saline

Measured: T/C

O=C(/C=C/c1ccccc1)NC(=S)Nc1ccccc1C(F)(F)F
inactive: dose: 12.5 mg/kg/injection, schedule: Q01DX009 (ip), vehicle: saline with Tween-80 93 % of control and 100 % of control | dose: 100.0 mg/kg/injection, schedule: Q01DX001 (ip), vehicle: saline with Tween-80 92 % of control | dose: 100.0 mg/kg/injection, schedule: Q04DX002 (ip), vehicle: saline with Tween-80 91 % of control | [1] 103 % of control | dose: 200.0 mg/kg/injection, schedule: Q01DX001 (ip), vehicle: saline with Tween-80 97 % of control | dose: 200.0 mg/kg/injection, schedule: Q04DX002 (ip), vehicle: saline with Tween-80 95 % of control and 101 % of control | [2] 91 % of control | dose: 400.0 mg/kg/injection, schedule: Q01DX001 (ip), vehicle: saline with Tween-80 112 % of control | dose: 400.0 mg/kg/injection, schedule: Q01DX009 (ip), vehicle: saline with Tween-80 86 % of control | dose: 400.0 mg/kg/injection, schedule: Q04DX002 (ip), vehicle: saline with Tween-80 93 % of control and 95 % of control | [3] 91 % of control

Cc1ccc(N)cc1CO
inactive: [4] 94 % of control | dose: 100.0 mg/kg/injection, schedule: Q04DX003 (ip), vehicle: Klucel (hydroxypropylcellulose) (HPC) 94 % of control | [5] 92 % of control | dose: 200.0 mg/kg/injection, schedule: Q04DX003 (ip), vehicle: Klucel (hydroxypropylcellulose) (HPC) 103 % of control | [6] 100 % of control | dose: 400.0 mg/kg/injection, schedule: Q04DX003 (ip), vehicle: Klucel (hydroxypropylcellulose) (HPC) 94 % of control

Nc1ccc(CCCCc2ccccc2)cc1
inactive: dose: 25.0 mg/kg/injection, schedule: Q01DX009 (ip), vehicle: saline with Tween-80 96 % of control | [7] 89 % of control

CC(=O)OCC1=C(COC(C)=O)C2OC1C1OC(=O)OC21 (configuration not stated)
inactive: dose: 75.0 mg/kg/injection, schedule: Q01DX009 (ip), vehicle: Klucel (hydroxypropylcellulose) (HPC) 97 % of control | dose: 100.0 mg/kg/injection, schedule: Q01DX009 (ip), vehicle: Klucel (hydroxypropylcellulose) (HPC) 105 % of control | dose: 150.0 mg/kg/injection, schedule: Q01DX009 (ip), vehicle: Klucel (hydroxypropylcellulose) (HPC) 92 % of control | dose: 200.0 mg/kg/injection, schedule: Q01DX009 (ip), vehicle: Klucel (hydroxypropylcellulose) (HPC) 97 % of control | dose: 300.0 mg/kg/injection, schedule: Q01DX009 (ip), vehicle: Klucel (hydroxypropylcellulose) (HPC) 104 % of control | dose: 400.0 mg/kg/injection, schedule: Q01DX009 (ip), vehicle: Klucel (hydroxypropylcellulose) (HPC) 101 % of control

CC(=O)C(Br)CC(C)C (configuration not stated)
inactive: [8] 102 % of control | [9] 105 % of control | dose: 300.0 mg/kg/injection, schedule: Q01DX001 (ip), vehicle: saline 100 % of control

COc1c2c(c(C(=O)O)c3ccncc13)CC(C)(C)C2
inactive: [7] 102 % of control | dose: 100.0 mg/kg/injection, schedule: Q01DX009 (ip), vehicle: saline with Tween-80 98 % of control | dose: 200.0 mg/kg/injection, schedule: Q01DX009 (ip), vehicle: saline with Tween-80 101 % of control

O=C(Nc1ccc(S(=O)(=O)Nc2ccc(N=Nc3ccc(N=Nc4ccccc4)cc3)cc2)cc1)C(N1CC1)(N1CC1)N1CC1
inactive: dose: 15.0 mg/kg/injection, schedule: Q01DX001 (ip), vehicle: saline 104 % of control | dose: 30.0 mg/kg/injection, schedule: Q01DX001 (ip), vehicle: saline 117 % of control | dose: 60.0 mg/kg/injection, schedule: Q01DX001 (ip), vehicle: saline 102 % of control

CC12CCC(F)(CC1)CC2=O
inactive: dose: 100.0 mg/kg/injection, schedule: Q04DX002 (ip), vehicle: saline 98 % of control | dose: 200.0 mg/kg/injection, schedule: Q04DX002 (ip), vehicle: saline 98 % of control | dose: 400.0 mg/kg/injection, schedule: Q04DX002 (ip), vehicle: saline 102 % of control

COc1ccc2[nH]c3c(C)cc(C=O)c(C)c3c2c1
inactive: dose: 100.0 mg/kg/injection, schedule: Q01DX001 (ip), vehicle: other 101 % of control | [1] 102 % of control | dose: 200.0 mg/kg/injection, schedule: Q01DX001 (ip), vehicle: other 95 % of control | [2] 101 % of control | dose: 400.0 mg/kg/injection, schedule: Q01DX001 (ip), vehicle: other 91 % of control | [3] 96 % of control

O=C(N/N=C/c1ccccc1Cl)c1ccccc1
inactive: [1] 96 % of control | [2] 101 % of control | [3] 88 % of control

C[N+](C)(C)C1CCCCC1
inactive: [8] 110 % of control and 106 % of control | [9] 105 % of control and 106 % of control

COc1ccc2nc(C)c(COC(C)=O)cc2c1
inactive: dose: 100.0 mg/kg/injection, schedule: Q04DX003 (ip), vehicle: saline 100 % of control | dose: 200.0 mg/kg/injection, schedule: Q04DX003 (ip), vehicle: saline 98 % of control | dose: 400.0 mg/kg/injection, schedule: Q04DX003 (ip), vehicle: saline 105 % of control

O=C(O)C1=CCCC1
inactive: dose: 222.0 mg/kg/injection, schedule: Q01DX Z (ip), vehicle: saline 103 % of control | dose: 333.0 mg/kg/injection, schedule: Q01DX Z (ip), vehicle: saline 102 % of control | dose: 500.0 mg/kg/injection, schedule: Q01DX Z (ip), vehicle: saline 96 % of control

Clc1ccc(N(c2ccccc2)c2ccccc2)cc1
inactive: [10] 115 % of control | [11] 100 % of control | [12] 108 % of control

OCCNc1ccccc1
inactive: [13] 93 % of control | [14] 101 % of control

Cc1cc(C)n(-c2nn3nnnc3c3ccccc23)n1
inactive: dose: 62.5 mg/kg/injection, schedule: Q04DX003 (ip), vehicle: saline 101 % of control | dose: 125.0 mg/kg/injection, schedule: Q04DX003 (ip), vehicle: saline 95 % of control | dose: 250.0 mg/kg/injection, schedule: Q04DX003 (ip), vehicle: saline 93 % of control

O=C(/C=C\c1ccccc1[N+](=O)[O-])C(=O)/C=C/c1ccccc1[N+](=O)[O-]
inactive: [4] 93 % of control | [5] 92 % of control | [6] 88 % of control

C[N+](C)(C)Cc1ccco1
inactive: dose: 25.0 mg/kg/injection, schedule: Q01DX009 (ip), vehicle: saline 103 % of control | dose: 50.0 mg/kg/injection, schedule: Q01DX009 (ip), vehicle: saline 93 % of control | dose: 100.0 mg/kg/injection, schedule: Q01DX009 (ip), vehicle: saline 95 % of control and 90 % of control

O=C(O)c1ccc([N+](=O)[O-])cc1S(=O)(=O)O
inactive: [13] 102 % of control | [14] 102 % of control | dose: 400.0 mg/kg/injection, schedule: Q01DX001 (ip), vehicle: saline 100 % of control

O=C1c2ccccc2C(=O)c2c(O)c(Cc3ccccn3)cc(O)c21
inactive: dose: 100.0 mg/kg/injection, schedule: Q04DX003 (ip), vehicle: saline sonified 89 % of control | dose: 200.0 mg/kg/injection, schedule: Q04DX003 (ip), vehicle: saline sonified 89 % of control | dose: 400.0 mg/kg/injection, schedule: Q04DX003 (ip), vehicle: saline sonified 94 % of control

O=C(COc1cccc(Cl)c1)NCc1ccccc1NC(=O)c1cccc(S(=O)(=O)F)c1
inactive: [10] 90 % of control | [11] 95 % of control | [12] 95 % of control
